This note sets out measurements from publication PMC4596572, “Ligand Discovery for the Alanine-Serine-Cysteine Transporter (ASCT2, SLC1A5) from Homology Modeling and Virtual Screening” (PLoS Computational Biology, 2015).

For test [1], the system named is C8161 human melanoma cells. Nature of the test: MTT cell viability assay. The class given is cell-based. The note with it: 5 mM. As for the experimental part:
Glutamine is a conditionally essential amino acid required for cancer cell growth, being used as fuel source for the TCA cycle, and a carbon and nitrogen source for macromolecule production. We therefore examined cell viability in the presence of chloroalanine (5 mM), AOC (5 mM) and γ-FBP (5 mM) using an MTT assay in C8161 cells (Methods).
(§1) Human melanoma cell line C8161 culture was performed as previously described. Media used was DMEM/F12 medium (Life Technologies) containing 5% (v/v) fetal bovine serum (FBS), penicillin-streptomycin solution (Sigma-Aldrich). Cells were maintained at 37°C in a fully humidified atmosphere containing 5% CO2. Inhibitors (chloroalanine, AOC and γ-FBP) were resuspended in H2O, with control cells treated with the appropriate concentrations of vehicle alone.
MTT (3–(4,5–dimethylthiazol–2–yl)–2,5–diphenyl […] bromide; Millipore) cell viability assay was performed as previously described. Briefly, C8161 cells (1 × 10^4/well) were seeded in a flat-bottomed 96–well plate, incubated overnight in media, prior to culture with or without each inhibitor. MTT solution (10 μL) was added to each well for 4 h, prior to addition of 100 μL of isopropanol/HCl solution. Solution was mixed thoroughly and plates immediately read at 570 nm/630 nm in a PolarStar plate reader (BMG). Results were plotted as percentages of the absorbance observed in control wells.
(Tetrazolium assays rely on reduction of a dye to a coloured formazan, in cell work by metabolically active cells.)

Test [2] has as its target T1, ASCT2 mediated glutamine uptake in C8161 melanoma cells (Homo sapiens, UniProt Q15758).
T1 construct: endogenous in cells; host or cells: C8161 human melanoma cell line
T1 sequence (Q15758 1-541): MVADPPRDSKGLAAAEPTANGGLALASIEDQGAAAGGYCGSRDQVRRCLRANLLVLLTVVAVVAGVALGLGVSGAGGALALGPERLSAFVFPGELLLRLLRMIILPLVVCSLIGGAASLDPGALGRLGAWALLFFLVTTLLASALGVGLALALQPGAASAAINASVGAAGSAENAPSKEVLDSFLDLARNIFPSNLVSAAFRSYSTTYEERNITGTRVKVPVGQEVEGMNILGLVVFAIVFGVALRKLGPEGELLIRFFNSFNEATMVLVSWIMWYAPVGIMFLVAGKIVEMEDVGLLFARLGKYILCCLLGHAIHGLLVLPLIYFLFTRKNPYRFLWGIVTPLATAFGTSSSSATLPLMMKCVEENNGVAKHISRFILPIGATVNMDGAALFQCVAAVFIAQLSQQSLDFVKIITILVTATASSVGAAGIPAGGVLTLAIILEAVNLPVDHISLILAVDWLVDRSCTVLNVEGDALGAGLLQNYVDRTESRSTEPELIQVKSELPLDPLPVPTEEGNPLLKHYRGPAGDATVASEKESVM
Nature of the test: [3H]-L-glutamine uptake assay in C8161 cells. Format: cell-based. The conditions noted are these: 15 min, 37°C, n = 3. As for the experimental part:
We have previously shown that ASCT2 mediates glutamine uptake in C8161 human melanoma cells, and that blocking ASCT2 activity inhibits cell growth and viability (Methods). […] In the presence these compounds, [^3H]-L-glutamine uptake was decreased in a dose-dependent manner in C8161 cells, in agreement with their elicitation of current as activators and potential substrates (Fig 8A–8C).
as §1
C8161 cells (1 × 10^5/well) were incubated with [^3H]-L-glutamine (400 nM; PerkinElmer) in MEM media (Life Technologies) for 15 min at 37°C in the presence or absence of each inhibitor. Cells were collected and transferred to filter paper using a 96-well plate harvester (Wallac PerkinElmer), dried, exposed to scintillation fluid and counts measured using a liquid scintillation counter (PerkinElmer).

What is called IC50 is the concentration at which inhibition is half-maximal. Read a high IC50 as weaker potency. Regarding `NC1(C(=O)O)COC1`, the “Cell viability (MTT)” value in test [1] is “significantly inhibited cell viability”. The compound also came in with an IC50 in test [2] of 10 to 15 mM.

As for `O=C(O)C1CC(Cc2ccccc2F)CN1` (stereo not drawn) [γ-FBP], the “Cell viability (MTT)” value in test [1] is “significantly inhibited cell viability”. Besides, in test [2], the 50% inhibitory concentration (IC50) is 10 to 15 mM.

As for `NC(CCl)C(=O)O` (stereo not drawn) [Chloroalanine], the “Cell viability (MTT)” value in test [1] is recorded as “significantly inhibited cell viability”. This compound came in with a concentration for half-maximal inhibition (IC50) in test [2] of 9.2 mM.
